Data set [1] is described as follows: One-photon fluorescence relative signal change per 100 mV. As to conditions: excitation / long-pass emission (nm) given. The source says: The left-most data columns of Table 1 are the absorption and emission maxima for one photon fluorescence in soybean multi-lamellar lipid vesicles used to mimic the membrane environment. The column indicating relative signal change for one-photon fluorescence also lists the excitation light source used and the lower bounds of the long-pass emission detected.

Data set [2] deals with NIE-115 mouse neuroblastoma. Briefly: Time-dependence (kinetics) of SHG and 2PF signal change after voltage-clamp step. The format is cell-based. Conditions: for SHG Kinetics (exponential time constant): time resolution 5 ms. The text has this: For full details of our non-linear imaging microscope, we refer the reader to previously published descriptions. A. C. Millard, P. J. Campagnola, W. Mohler, A. Lewis, and L. M. Loew, “Second Harmonic Imaging Microscopy,” Meth. Enzymol. 361, 47-69 (2003); Millard, A. C., L. Jin, and L. M. Loew, “Second Harmonic Generation Imaging Microscopy with a High Power Ultrafast Fiber Laser,”Commercial and Biomedical Applications of Ultrafast Lasers. 5714-5716, 92-98 (2005); A. C. Millard, L. Jin, M.-D. Wei, J. P. Wuskell, A. Lewis, and L. M. Loew, “Sensitivity of Second Harmonic Generation from Styryl Dyes to Transmembrane Potential,” Biophys. J. 86, 1169-1176 (2004). Our current microscope combines a Fluoview (Olympus) scan-head and an Axiovert (Zeiss) inverted microscope constructed for multiple imaging methodologies including wide-field, one-photon excitation fluorescence imaging, as well as SHG and 2PF imaging. Our laser sources include a Mira (Coherent) Ti:sapphire laser and a Femtopower (Fianium) fiber laser operating at 1064 nm. Millard, A. C., L. Jin, and L. M. Loew, “Second Harmonic Generation Imaging Microscopy with a High Power Ultrafast Fiber Laser,”Commercial and Biomedical Applications of Ultrafast Lasers. 5714-5716, 92-98 (2005). For excitation, we routinely use an IR-Achroplan (Zeiss) 40×, 0.8 NA water-immersion objective though for shorter wavelengths we also use an A-Plan (Zeiss) 40×, 0.65 NA air objective. Fluorescence is imaged (for linear imaging) or collected (for non-linear imaging) back through the excitation objective, while SHG is collected in the forward, transmitted light direction by a condenser, either 0.8 NA or 0.55 NA (Zeiss). For optimal collection, the numerical aperture of the condenser should be at least 1/√2 of the numerical aperture of the excitation objective (L. Moreaux, O. Sandre, S. Charpak, M. Blanchard-Desce, and J. Mertz, “Coherent Scattering in Multi-Harmonic Light Microscopy,” Biophys. J. 80, 1568-1574 (2001); L. Moreaux, O. Sandre, and J. Mertz. “Membrane Imaging by Second Harmonic Generation Microscopy,” J. Opt. Soc. Am. B. 17, 1685-1694 (2000)), though in practice a condenser of slightly lower numerical aperture will often suffice. Since the wavelength of second harmonic light is precisely half that of the excitation light, the choice of filter for SHG imaging is greatly simplified and the primary concern is the blocking of the excitation light that is also transmitted through the sample as well as fluorescence that is emitted forwards.
NIE-115 mouse neuroblastoma were cultured in DMEM with 10% fetal bovine serum and 1% antibiotic-antimycotic (Invitrogen, Carlsbad, Calif.) in a 60 mm plastic dish (353002, Becton Dickinson, Franklin Lakes, N.J.). The culture was maintained at 37° C. with 5% CO2 for a period of 48 hours prior to experimentation.
For experimentation the growth medium was replaced with 3 mL of Earle's Balanced Salt Solution (EBSS, Sigma, St. Louis, Mo.) with 20 mM HEPES (Merck Biosciences AG, Laufelfingen, Switzerland). The internal buffer, injected into the patch pipette, was a potassium aspartate (140 mM, Sigma, St. Louis, Mo.), sodium chloride (5 mM, Sigma, St. Louis, Mo.) and HEPES (10 mM) solution at a pH of 7.35. The pH was adjusted with potassium hydroxide and hydrochloric acid.
For characterizing the voltage-sensitivity of SHG and 2PF, we used a slow (˜0.1 Hz) switching protocol as previously described (A. C. Millard, P. J. Campagnola, W. Mohler, A. Lewis, and L. M. Loew, “Second Harmonic Imaging Microscopy,” Meth. Enzymol. 361, 47-69 (2003); Millard, A. C., L. Jin, and L. M. Loew, “Second Harmonic Generation Imaging Microscopy with a High Power Ultrafast Fiber Laser,” Commercial and Biomedical Applications of Ultrafast Lasers. 5714-5716, 92-98 (2005); A. C. Millard, L. Jin, M.-D. Wei, J. P. Wuskell, A. Lewis, and L. M. Loew, “Sensitivity of Second Harmonic Generation from Styryl Dyes to Transmembrane Potential,” Biophys. J. 86, 1169-1176 (2004)) with a 50 mV step. […]

Data set [3] in a line: One-photon absorption and emission spectra in multilamellar lipid vesicles, water and ethanol. The format is physicochemical. As to conditions: for Absorbance MLV: multilamellar lipid vesicles; for 1PF Abs. Max / 1PF Em. Max: one photon, soybean multi-lamellar lipid vesicles. The source says: […] The column indicating relative signal change for one-photon fluorescence also lists the excitation light source used and the lower bounds of the long-pass emission detected.
Absorption and emission spectra were obtained for a series of dyes with different acceptors: pyridinium (PY-1261), quinolinium (PY-212), and acridinium (PY-2240).

Each structure is given as a SMILES string.

Consider `CCCCN(CCCC)c1ccc(-c2ccc(/C=C/c3cc[n+](CCC[N+](CC)(CC)CC)cc3)s2)s1` [PY-1266, Di-4-BTEPPTEA], for which the “1PF Change (ΔF/F-100 mv)” value in data set [1] is given as 1.0E−001; 635/>715 ΔF/F-100 mv. In data set [2], the “SHG kinetics, in words” value is on record as “slower kinetic response” and the “SHG Kinetics (exponential time constant)” value was determined as 23 ± 2 ms. For the same compound, in data set [3], the Absorbance ethanol came out at 624 nm, the “Absorbance MLV” value turned out to be 552 nm, the “1PF Abs. Max” value was 552 nm and the “1PF Em. Max” value came to 694 nm. The Absorbance water in data set [3] came out at 555 nm.
Take `CCCN(CCC)c1ccc(-c2ccc(/C=C/c3cc[n+](CCC[N+](CC)(CC)CC)cc3)s2)s1` [PY-1286, Di-3-BTEPPTEA]: the “1PF Change (ΔF/F-100 mv)” value in data set [1] was 1.8E−001; 640/>715 ΔF/F-100 mv. In data set [2], the “SHG kinetics, in words” value is recorded as “slower kinetic response” and the “SHG Kinetics (exponential time constant)” value was 27 ± 1 ms. In addition, in data set [3], the Absorbance ethanol is recorded as 616 nm, the “Absorbance MLV” value came to 547 nm, the “1PF Abs. Max” value was determined as 547 nm and the “1PF Em. Max” value was 692 nm. This compound showed an Absorbance water in data set [3] of 567 nm.
With `CCN(CC)c1ccc(-c2ccc(/C=C/c3cc[n+](CCC[N+](CC)(CC)CC)cc3)s2)s1` [PY-1261, Di-2-BTEPPTEA], in data set [1], the “1PF Change (ΔF/F-100 mv)” value is reported as 5.0E−002; 625/>715 ΔF/F-100 mv. For the same compound, the “SHG kinetics, in words” value in data set [2] is on record as “instantaneous”. Besides, in data set [3], the Absorbance ethanol was determined as 614 nm, the “Absorbance MLV” value was 547 nm, the “1PF Abs. Max” value was 547 nm and the “1PF Em. Max” value was 686 nm. In data set [3], the Absorbance water was 539 nm.
